Measurements reported in BindingDB's records for doi:10.7270/Q29G5KF0 (The Scripps Research Institute Molecular Screening Center, 2013).

Target: Kallikrein-7 (Homo sapiens, UniProt P49862)
Sequence (P49862 whole entry): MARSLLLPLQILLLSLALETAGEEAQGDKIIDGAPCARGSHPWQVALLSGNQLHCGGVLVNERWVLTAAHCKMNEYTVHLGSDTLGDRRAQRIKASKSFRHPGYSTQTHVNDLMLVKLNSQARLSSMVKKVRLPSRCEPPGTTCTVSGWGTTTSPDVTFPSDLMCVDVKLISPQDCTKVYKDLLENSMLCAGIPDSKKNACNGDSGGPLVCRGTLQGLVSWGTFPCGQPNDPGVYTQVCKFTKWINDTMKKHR

Row | Structure (SMILES) | EC50 [µM]
1 | COC(=O)c1[nH]n(-c2ccccc2)c2c(O)n(-c3ccccc3OC)c(=O)c1-2 [methyl 5-(2-methoxyphenyl)-4,6-bis(oxidanylidene)-1-phenyl-3a,6a-dihydropyrrolo[3,4-c]pyrazole-3-carboxylate] | > 69.5
2 | COC(=O)c1ccc(C2C3=C(CC(C)(C)CC3=O)N=C(C)C2C#N)cc1 (stereo not given) [methyl 4-(3-cyano-2,7,7-trimethyl-5-oxo-1,4,6,8-tetrahydroquinolin-4-yl)benzoate] | 20.8
3 | COCCN1Cc2cc(=O)n3c(nc4ccccc43)c2=C1N [SMR000369291] | > 69.5
4 | COC(=O)C1=CN=CC(C(=O)OC)C1c1ccc(C(=O)OC)cc1 (stereo not given) [MLS000111732] | > 69.5
5 | COc1ccc(C2C(C(=O)N3CCOCC3)=C(C)N=C3CC(C)(C)CC(=O)C32)c(OC)c1 (stereo not given) [MLS000076547] | 52.4

Further lines, results first:

Row | EC50 [µM] | Structure (SMILES)
6 | 23.5 | COc1ccccc1C1CC(c2ccc(C)cc2)=Nc2nnnn21 (stereo not given)
7 | 8.2 | COC(=O)CC1=C(C(=O)OC)C(c2ccccc2[N+](=O)[O-])C(C#N)C(=N)O1 [methyl (4S)-6-amino-5-cyano-2-(2-methoxy-2-oxoethyl)-4-(2-nitrophenyl)-4H-pyran-3-carboxylate]
8 | 12.1 | COc1ccccc1C1CC(c2ccccc2)=Nc2nnnn21 (stereo not given) [SMR000107979]
9 | 4.56 | C=CCOC(=O)C1=C(C)N=C(SCC(=O)NC(=O)OCC)C(C#N)C1c1cccnc1 (stereo not given) [prop-2-enyl 5-cyano-6-[2-(ethoxycarbonylamino)-2-oxidanylidene-ethyl]sulfanyl-2-methyl-4-pyridin-3-yl-1,4-dihydropyridine-3-carboxylate]
10 | > 69.5 | CC1=NC2=C(C(=O)CC(C)(C)C2)C(c2cccnc2)C1C#N (stereo not given) [2,7,7-trimethyl-5-oxo-4-pyridin-3-yl-1,4,6,8-tetrahydroquinoline-3-carbonitrile]
